Measured values: patent US20220144823A1, “PYRAZOLOPYRIDINE DERIVATIVES AS INHIBITORS OF PASK” (Galapagos NV, priority 2019, published 2022)

Legend:
[1] = target: T1, autophosphorylation of PASK at position Thr307 in Hek293 cells overexpressing PASK (Homo sapiens, UniProt Q96RG2); test: PASK autophosphorylation ELISA assay; format: cell-based; settings: 24 h, ELISA readout
T1 construct: expressed in transfected cells; host or cells: Hek293
Protocol: The compounds of the invention are profiled in a cellular assay to determine their capacity to reduce the autophosphorylation levels of PASK at position Thr307 in Hek293 cells overexpressing PASK, using an ELISA-based readout.
At day 1, a 96-well cell assay plate is coated with poly-D-lysine (50 μL/well of a 0.05 mg/mL solution in PBS) and incubated for 1 h at 37° C. The plate is subsequently washed once with PBS and stored dry at RT until further use. Hek293 cells are transfected with a pcDNA3.1-PASK(FL,WT)-FLAG construct (SEQ ID1) and seeded in culture medium (DMEM+10% FBS) in a poly-D-lysine coated 96-well plate (0.3 μL JetPEI DNA transfection reagent (Polyplus-transfection SA, Cat #101-40), 10 ng construct and 90 ng pBluescript, 60000 cells per well). […] The cell plate is incubated overnight at 37° C., 5% CO2.
At day 2, the medium of the assay plate is removed and 100 μL of fresh medium (DMEM+10% FBS) is added to the plate. Cell plate is further incubated overnight at 37° C., 5% CO2. This to allow further expression of PASK protein.
At day 3, the medium is removed and replaced with 100 μL of serum free medium (DMEM). Test compound is added to the plate (8 points concentration curve with 1/3 dilution steps starting from 30 μM final concentration in 0.3% DMSO final). In the positive and negative control wells of the plate, 0.3% DMSO final is added. For each tested condition, duplicates are made for ELISA readout. Cell plate is incubated 24 h at 37° C., 5% CO2.
At day 4, the medium is removed and the plate is washed once with 100 μL/well PBS. Cells are lysed by adding 50 μL/well western blot lysis buffer (20 mM Tris pH 7.5, 150 mM NaCl and 1% Triton) to the plate. The assay plate is stored at −80° C. and thawed to perform the ELISA readout.
At day 1, the ELISA plate is coated with the mouse anti-FLAG antibody (2 μg/mL diluted in PBS, 100 μL/well) and incubated overnight at 4° C.
At day 2, the plate is washed once with 150 μL/well PBS. 200 μL/well blocking buffer (PBS with 3% BSA) is added and the plate is incubated for 4 h at RT. The plate is washed with 150 μL/well high salt washing buffer (20 mM Na2HPO4, 0.5% Triton X-100, 0.1% SDS, 0.1% BSA and 1 M NaCl) followed by one wash with 150 μL/well low salt washing buffer (20 mM Na2HPO4, 0.5% Triton X-100, 0.1% SDS, 0.1% BSA and 150 mM NaCl). Meanwhile, the cell lysate plate is thawed, two wells of the same condition are pooled (2×50 μL) and added to the ELISA plate. The ELISA plate is incubated overnight at 4° C.
At day 3, the ELISA plate is washed twice with 150 μL/well high salt washing buffer followed by two washes with low salt washing buffer. 100 μL/well detection antibody for pPASK (phospho-Akt substrate (RXXS*/T*) (110B7E) rabbit antibody (Cell Signaling Technology, Inc., Cat #9614) 2 μg/mL diluted in PBS with 3% BSA and 1×Halt™ protease and phosphatase inhibitor cocktail (Thermo Fisher Scientific, Inc., Cat #78447)) is added and incubated for 2 h at RT. The plate is washed twice with high and low salt wash buffer (150 μL/well) and 100 μL/well of an HRP antibody (swine anti-rabbit HRP antibody (Agilent Technologies, Inc., Cat #P039901) diluted 1/2000 in PBS with 3% BSA and 1×Halt™ protease and phosphatase inhibitor cocktail) is added to the plate, followed by an incubation for 1 h at RT in the dark (plate sealed with aluminum seal). The plate is washed twice with high and low salt wash buffer (150 μL/well) and 100 μL/well of SuperSignal™ ELISA Pico Chemiluminescent Substrate (Thermo Fisher Scientific, Inc., Cat #37070)(premix part 1 and part 2, 1/1) is added. The plate is incubated for 4 min at RT before measuring luminescence on the Luminoskan™ Ascent (Thermo Fisher Scientific, Inc.) (PMT default voltage; 100 ms integration time). […]

[2] = target: T2, human PASK (Homo sapiens, UniProt Q96RG2); test: ADP-Glo kinase assay; format: biochemical; settings: ADPGlo PASK kinase assay, 25 μM ATP, ZIPtide 25 μM
T2 construct: purchased ThermoFisher Scientific PR7013A
T2 sequence (Q96RG2 whole entry): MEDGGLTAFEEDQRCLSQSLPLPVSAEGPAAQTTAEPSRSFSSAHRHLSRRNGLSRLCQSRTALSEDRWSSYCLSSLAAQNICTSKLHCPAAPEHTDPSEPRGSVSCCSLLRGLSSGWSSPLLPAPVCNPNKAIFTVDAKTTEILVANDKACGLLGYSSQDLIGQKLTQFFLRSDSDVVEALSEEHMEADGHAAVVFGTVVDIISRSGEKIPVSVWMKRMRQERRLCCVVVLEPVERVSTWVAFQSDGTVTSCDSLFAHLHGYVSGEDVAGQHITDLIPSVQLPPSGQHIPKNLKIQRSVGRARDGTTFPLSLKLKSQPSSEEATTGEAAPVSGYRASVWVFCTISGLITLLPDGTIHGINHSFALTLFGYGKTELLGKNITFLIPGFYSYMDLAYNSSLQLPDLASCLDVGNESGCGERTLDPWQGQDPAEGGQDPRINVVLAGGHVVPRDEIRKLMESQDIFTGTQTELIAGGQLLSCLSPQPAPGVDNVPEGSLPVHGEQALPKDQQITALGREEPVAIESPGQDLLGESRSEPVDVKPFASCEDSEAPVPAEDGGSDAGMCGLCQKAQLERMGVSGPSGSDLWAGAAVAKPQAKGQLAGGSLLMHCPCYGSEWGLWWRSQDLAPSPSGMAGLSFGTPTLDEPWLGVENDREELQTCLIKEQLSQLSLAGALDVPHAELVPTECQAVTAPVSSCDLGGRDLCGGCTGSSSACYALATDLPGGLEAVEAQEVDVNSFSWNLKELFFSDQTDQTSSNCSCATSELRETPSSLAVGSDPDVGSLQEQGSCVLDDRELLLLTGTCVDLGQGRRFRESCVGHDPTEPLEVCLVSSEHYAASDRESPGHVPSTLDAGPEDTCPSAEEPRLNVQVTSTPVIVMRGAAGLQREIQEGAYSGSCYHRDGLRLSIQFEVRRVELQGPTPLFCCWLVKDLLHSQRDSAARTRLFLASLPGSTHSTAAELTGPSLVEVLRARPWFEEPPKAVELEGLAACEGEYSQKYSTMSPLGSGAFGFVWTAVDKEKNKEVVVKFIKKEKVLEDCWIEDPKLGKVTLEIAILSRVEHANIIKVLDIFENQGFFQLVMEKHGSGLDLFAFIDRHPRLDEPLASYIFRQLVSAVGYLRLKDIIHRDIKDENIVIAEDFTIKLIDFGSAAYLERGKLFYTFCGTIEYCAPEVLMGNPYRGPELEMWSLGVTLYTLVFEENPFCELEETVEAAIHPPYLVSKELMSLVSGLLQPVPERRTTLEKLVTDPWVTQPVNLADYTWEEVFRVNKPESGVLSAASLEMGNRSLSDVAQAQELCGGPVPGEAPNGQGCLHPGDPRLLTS
Protocol: The ADP-Glo™ kinase assay is a luminescent technology assay which measures the ADP formed from a kinase reaction. In this specific study, the kinase reactions consisted of the phosphorylation of the ZIPtide peptide substrate by human recombinant PASK. In a second step the kinase reaction is terminated and all the remaining ATP is depleted. In a final step the ADP is converted into ATP and this newly synthesized ATP is measured by using a luciferase/luciferin reaction. The generated light is measured using an Envision plate reader, wherein the luminescent signal obtained positively correlates with the kinase activity.
The test compounds are prepared as a serial dilution of 10 point dose responses with 1/5 dilution steps in 100% DMSO starting from 2 mM highest concentration, diluted 1/20 in water and 1 μL is transferred to the assay plates (PerkinElmer Inc., Cat #6007290).
(§1) 1% DMSO and 10 μM staurosporine final concentrations are used respectively as negative and positive controls.
2 μL enzyme-substrate mixture is added to the assay plates.
The reaction is started by adding 2 μL diluted ATP on the assay plates immediately after addition of the enzyme-substrate mixture to the compound. Plates are centrifuged for a few seconds at 1000 rpm and gently shaken for 2 min followed by an incubation at RT for 120 min.
The reactions are stopped and the unconsumed ATP is depleted by adding 5 μL ADP-Glo Reagent (Promega, Cat #V912B) to the reaction. The plates are centrifuged for a few seconds at 1000 rpm and incubated at RT for 40 min (ATP depletion).
The ADP is converted to ATP and luciferase and luciferin is introduced to detect ATP by adding 10 μL Kinase Detection Reagent (Promega, Cat #V913B+V914B) to the reaction. The plates are centrifuged for a few seconds at 1000 rpm and incubated at RT for 30 min (ADP detection).
Luminescence is measured on an Envision plate reader (PerkinElmer Inc.).
Raw data are generated following the read-out performed on the Envision plate reader, used to calculate percentage inhibition (PIN) values and plotted to generate dose response curves and derive the average half maximal inhibitory concentrations (IC50) reported in Table VIII.

[3] = target: T2, human PASK; test: 33P radioactive kinase assay; format: biochemical; settings: 33P radioactive PASK kinase assay, 10 μM ATP, ZIPtide 1 μM
Protocol: The principle of the ^33P radioactive kinase assay consists in measuring the incorporated ^33P into the ZIPtide peptide substrate when phosphorylated by human PASK using [^33P]-[…]-ATP and ATP, which correlates with kinase activity.
The test compounds are prepared as a serial dilution of 10 point dose responses with 1/5 dilution steps in 100% DMSO starting from 0.2 or 2 mM highest concentration, diluted 1/20 in water and 5 μL is transferred to the assay plates (Greiner, Cat #651201).
as §1
11 μL of enzyme-substrate mixture is added on the assay plates. The reactions are started by adding 9 μL ATP mixture, consisting of non-labeled and ^33P-labeled ATP, on the assay plates.
The reactions are stopped by adding 25 μL phosphoric acid (150 mM) to the reactions.
The completely terminated kinase reactions are transferred using a harvester on pre-wetted UniFilter-96 plates (UniFilter-96 GF/B, PerkinElmer Inc., Cat #6005177).
After harvesting the kinase reactions, the filter plates are washed 6 times with phosphoric acid (75 mM). The back of the UniFilter-96 plates are sealed and 40 μL MicroScint-20 (PerkinElmer Inc., Cat #6013621) is added to each well. The top of each plate is sealed with TopSeal-A (PerkinElmer Inc., Cat #6050185). Read-out is performed with a TopCount instrument (PerkinElmer Inc.).
Raw data are generated following the read-out performed on the TopCount, used to calculate percentage inhibition (PIN) values and plotted to generate dose response curves and derive the average half maximal inhibitory concentrations (IC50) reported in Table VI.

T1 sequence (Q96RG2 with tags, fused parts or gaps): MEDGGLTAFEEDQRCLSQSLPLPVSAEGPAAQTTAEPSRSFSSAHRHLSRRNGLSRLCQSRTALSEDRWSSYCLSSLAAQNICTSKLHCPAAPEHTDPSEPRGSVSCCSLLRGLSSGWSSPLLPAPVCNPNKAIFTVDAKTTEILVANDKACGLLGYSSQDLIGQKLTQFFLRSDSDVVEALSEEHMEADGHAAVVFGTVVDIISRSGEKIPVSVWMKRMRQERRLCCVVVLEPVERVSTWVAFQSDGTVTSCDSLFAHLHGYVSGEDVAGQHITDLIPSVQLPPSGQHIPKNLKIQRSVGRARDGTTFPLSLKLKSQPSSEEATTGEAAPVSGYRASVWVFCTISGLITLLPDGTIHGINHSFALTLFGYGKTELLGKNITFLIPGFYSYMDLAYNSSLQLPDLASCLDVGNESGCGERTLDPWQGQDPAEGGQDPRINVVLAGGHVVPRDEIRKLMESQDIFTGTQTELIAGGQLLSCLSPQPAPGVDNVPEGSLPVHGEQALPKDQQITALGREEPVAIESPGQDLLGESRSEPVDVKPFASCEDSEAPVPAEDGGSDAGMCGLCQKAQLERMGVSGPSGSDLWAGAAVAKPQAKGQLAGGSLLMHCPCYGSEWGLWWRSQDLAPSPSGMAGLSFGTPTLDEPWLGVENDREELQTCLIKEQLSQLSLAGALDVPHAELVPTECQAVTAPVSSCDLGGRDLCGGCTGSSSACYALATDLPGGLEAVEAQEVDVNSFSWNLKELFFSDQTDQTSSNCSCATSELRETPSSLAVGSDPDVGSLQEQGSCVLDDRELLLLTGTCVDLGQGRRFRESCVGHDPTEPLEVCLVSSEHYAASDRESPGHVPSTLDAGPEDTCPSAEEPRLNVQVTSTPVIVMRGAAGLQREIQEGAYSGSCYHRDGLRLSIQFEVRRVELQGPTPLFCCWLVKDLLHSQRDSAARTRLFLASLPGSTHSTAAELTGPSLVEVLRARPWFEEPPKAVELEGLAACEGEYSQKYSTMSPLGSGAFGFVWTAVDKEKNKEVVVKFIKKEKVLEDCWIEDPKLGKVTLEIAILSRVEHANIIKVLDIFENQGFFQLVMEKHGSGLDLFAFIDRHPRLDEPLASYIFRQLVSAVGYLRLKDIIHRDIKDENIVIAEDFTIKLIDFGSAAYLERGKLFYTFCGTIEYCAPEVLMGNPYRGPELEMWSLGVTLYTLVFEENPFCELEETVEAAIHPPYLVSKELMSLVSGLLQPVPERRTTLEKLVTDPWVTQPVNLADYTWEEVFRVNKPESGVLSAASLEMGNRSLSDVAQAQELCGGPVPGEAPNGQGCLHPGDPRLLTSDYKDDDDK

Row | SMILES | IC50 [1] [nM] | IC50 [2] [nM] | IC50 [3] [nM]
1 | CCOc1nc(-c2ccn3ncc(-c4c(C)nn(C(C)C)c4C)c3c2)sc1C(=O)O [Cpd 65, 4-ethoxy-2-[3-(1-isopropyl-3,5-dimethyl-pyrazol-4-yl)pyrazolo[1,5-a]pyridin-5-yl]thiazole-5-carboxylic acid] | 0.1 to 500 | 0.01 to 10 | 
2 | Cc1nn(C(F)F)c(C)c1-c1cnn2ccc(-c3ncc(C(=O)O)s3)cc12 [Cpd 50, 2-[3-[1-(difluoromethyl)-3,5-dimethyl-pyrazol-4-yl]pyrazolo[1,5-a]pyridin-5-yl]thiazole-5-carboxylic acid] | > 5000 | 0.01 to 10 | 
3 | Cc1nn(CC(F)(F)F)c(C)c1-c1cnn2ccc(-n3cc(C(=O)O)cn3)cc12 [Cpd 62, 1-[3-[3,5-dimethyl-1-(2,2,2-trifluoroethyl)pyrazol-4-yl]pyrazolo[1,5-a]pyridin-5-yl]pyrazole-4-carboxylic acid] | > 5000 | 0.01 to 10 | 
4 | COc1nn(-c2ccn3ncc(-c4c(C)nn(CC(F)(F)F)c4C)c3c2)cc1C(=O)O [Cpd 68, 1-[3-[3,5-dimethyl-1-(2,2,2-trifluoroethyl)pyrazol-4-yl]pyrazolo[1,5-a]pyridin-5-yl]-3-methoxy-pyrazole-4-carboxylic acid] | > 5000 | 0.01 to 10 | 
5 | CCOc1nc(-c2ccn3ncc(-c4c(C)nn(C(F)F)c4C)c3c2)sc1C(=O)O [Cpd 72, 2-[3-[1-(difluoromethyl)-3,5-dimethyl-pyrazol-4-yl]pyrazolo[1,5-a]pyridin-5-yl]-4-ethoxy-thiazole-5-carboxylic acid] | 1000 to 5000 | 0.01 to 10 | 
6 | COc1nn(-c2ccn3ncc(-c4c(C)nn(C(C)C)c4C)c3c2)cc1C(=O)O [Cpd 66, 1-[3-(1-isopropyl-3,5-dimethyl-pyrazol-4-yl)pyrazolo[1,5-a]pyridin-5-yl]-3-methoxy-pyrazole-4-carboxylic acid] | > 5000 | 0.01 to 10 | 
7 | Cc1nn(C(F)F)c(C)c1-c1cnn2ccc(-n3cc(C(=O)O)cn3)cc12 [Cpd 69, 1-[3-[1-(difluoromethyl)-3,5-dimethyl-pyrazol-4-yl]pyrazolo[1,5-a]pyridin-5-yl]pyrazole-4-carboxylic acid] | > 5000 | 0.01 to 10 | 
8 | CCOc1nc(-c2ccn3ncc(-c4c(C)nn(CC)c4C)c3c2)sc1C(=O)O [Cpd 64, 4-ethoxy-2-[3-(1-ethyl-3,5-dimethyl-pyrazol-4-yl)pyrazolo[1,5-a]pyridin-5-yl]thiazole-5-carboxylic acid] | 0.1 to 500 | 0.01 to 10 | 
9 | CCOc1nc(-c2ccn3ncc(-c4c(C)noc4C)c3c2)sc1C(=O)O [Cpd 17, 2-[3-(3,5-dimethylisoxazol-4-yl)pyrazolo[1,5-a]pyridin-5-yl]-4-ethoxy-thiazole-5-carboxylic acid] |  | 0.01 to 10 | 0.01 to 10
10 | Cc1noc(C)c1-c1cnn2ccc(-c3nc(C(=O)O)co3)cc12 [Cpd 20, 2-[3-(3,5-dimethylisoxazol-4-yl)pyrazolo[1,5-a]pyridin-5-yl]oxazole-4-carboxylic acid] |  | 100 to 500 | 10 to 100

Second part, the molecule after the results:

Row | IC50 [1] [nM] | IC50 [2] [nM] | IC50 [3] [nM] | SMILES
11 | 1000 to 5000 | 0.01 to 10 |  | CCn1nc(C)c(-c2cnn3ccc(-c4nc(OC)c(C(=O)O)s4)cc23)c1C [Cpd 84, 2-[3-(1-ethyl-3,5-dimethyl-pyrazol-4-yl)pyrazolo[1,5-a]pyridin-5-yl]-4-methoxy-thiazole-5-carboxylic acid]
12 | 500 to 1000 | 0.01 to 10 |  | Cc1nn(C)c(C)c1-c1cnn2ccc(-c3nc(OCC(F)(F)F)c(C(=O)O)s3)cc12 [Cpd 90, 4-(2,2,2-trifluoroethoxy)-2-[3-(1,3,5-trimethylpyrazol-4-yl)pyrazolo[1,5-a]pyridin-5-yl]thiazole-5-carboxylic acid]
13 | > 5000 | 0.01 to 10 |  | COc1nc(-c2ccn3ncc(-c4c(C)nn(C(C)C)c4C)c3c2)sc1C(=O)O [Cpd 74, 2-[3-(1-isopropyl-3,5-dimethyl-pyrazol-4-yl)pyrazolo[1,5-a]pyridin-5-yl]-4-methoxy-thiazole-5-carboxylic acid]
14 | > 5000 | 0.01 to 10 |  | CCn1nc(C)c(-c2cnn3ccc(-n4cc(C(N)=O)c(OC)n4)cc23)c1C [Cpd 82, 1-[3-(1-ethyl-3,5-dimethyl-pyrazol-4-yl)pyrazolo[1,5-a]pyridin-5-yl]-3-methoxy-pyrazole-4-carboxamide]
